Columns and labels:
[1] = test system: Human alphaherpesvirus 1; assay: Antiviral activity against Herpes simplex virus type 1 (HSV-1) up to 100 uM concentration; inactive; assay type: functional, organism-based
[2] = test system: Human immunodeficiency virus 1; assay: Antiviral activity against Human immunodeficiency virus 1 (HIV-1) up to 100 uM concentration; inactive; assay type: functional, organism-based
[3] = test system: MCF7; assay: Antitumor activity against breast carcinoma cell line (MCF-7M); assay type: functional, cell-based; conditions: Homo sapiens
[4] = test system: SK-MES-1; assay: Antitumor activity against lung carcinoma cell line (SK-MES-1); assay type: functional, cell-based; conditions: Homo sapiens
[5] = test system: HT-29; assay: Antitumor activity against colon carcinoma cell line (HT-29); assay type: functional, cell-based; conditions: Homo sapiens

Row | SMILES | IC50 [1] | IC50 [2] | IC50 [3] [µM] | IC50 [4] [µM] | IC50 [5] [µM]
1 | Cc1cn(C2C[C@@H](CO)N(CCC#N)C2)c(=O)[nH]c1=O (some centres undefined) | Not Active | Not Active |  |  | 
2 | COC(=O)N1CC(n2cc(C)c(=O)[nH]c2=O)C[C@H]1CO (some centres undefined) | Not Active | Not Active |  |  | 
3 | Cc1cn([C@@H]2C[C@H](CO)N(N=O)C2)c(=O)[nH]c1=O | Not Active | Not Active |  |  | 
4 | Cc1cn(C2C[C@@H](CO)N(C=O)C2)c(=O)[nH]c1=O (some centres undefined) | Not Active | Not Active |  |  | 
5 | Cc1cn(C2CNC(CO)C2)c(=O)[nH]c1=O (centres undefined) | Not Active | Not Active |  |  | 
6 | Cc1cn(C2C[C@@H](CO)N(C#N)C2)c(=O)[nH]c1=O (some centres undefined) | Not Active | Not Active |  |  | 
7 | Cc1cn([C@@H]2C[C@H](CO)N(O)C2)c(=O)[nH]c1=O | Not Active | Not Active | 0.08 | 6.91 | 14
8 | O=c1[nH]cc(F)c(=O)[nH]1 [FLUOROURACIL] |  |  |  | 0.31 | 0.15

Source: ChEMBL document CHEMBL1124550, “Replacement of the 3'-CH group by nitrogen in the carbocyclic analogue of thymidine” (J Med Chem, 1989)
